# Source: patent US10111874B2, “Combination therapies for treatment of cancer” (Araxes Pharma LLC, priority 2014, dated 2018)
# Columns and labels:
# [1] = molecular target: T1, KRAS G12C 1-169, his-tagged protein, GDP-loaded (Homo sapiens, UniProt P01116, G12C); test: Biochemical assay: covalent binding to KRAS G12C analyzed by mass spectrometry
# T1 construct: KRAS G12C 1-169, his-tagged protein, GDP-loaded
# [2] = system: H358 cells (KRAS G12C); test: Western blots of downstream KRAS signaling nodes and apoptosis markers in H358 cells; type: cell-based; conditions: for inhibition of downstream KRAS signaling nodes (Western blot) / apoptosis based on cleaved PARP levels: H358 cells; for inhibition of downstream KRAS signaling nodes (Western blot): alone; for apoptosis based on cleaved PARP levels: erlotinib 5 μM; for G1 arrest and induction of apoptosis: H358 cells (FIG. 9, left panel)
# Procedure: FIG. 2 depicts western blot analysis of downstream targets of K-Ras signaling. […] Paclitaxel was used as a positive control. The western blots were probed with antibodies for p-AKT, p-ERK, total ERK, p-RSK, p-S6 and cleaved PARP. Cleaved PARP is indicative of apoptosis. B) A549 cells that express the G12S isoform of K-Ras were used a control for K-Ras G12C inhibitor specificity. A549 cells were treated as in A).
# Western blots were used to analyze downstream KRAS signaling nodes (AKT, ERK, RSK, S6) and a marker of apoptosis (cleaved PARP).
# Western blots were used to analyze downstream KRAS signaling nodes (AKT, ERK, RSK, S6) and a marker of apoptosis (cleaved PARP). […] Taxol (paclitaxel) was used as a positive control.
# Western blots were used to analyze downstream KRAS signaling nodes (AKT, ERK, RSK, S6) and a marker of apoptosis (cleaved PARP). […] Caspase activity was measured using a standard caspase activity luminescence assay (Capase-Glo, Promega).
# [3] = system: mutant cell lines (NCI-H23, SW1573); test: Western blots, KRAS G12C inhibitor with ruxolitinib or momelotinib; type: cell-based; conditions: I-272 1 μM; ruxolitinib or momelotinib 1 and 5 μM
# Procedure: Western blots were used to analyze downstream KRAS signaling nodes (AKT, ERK, S6), transcription factors (STAT3, IκBα), protein marker (TBK1) and a marker of apoptosis (cleaved PARP). Treatment of mutant cell lines (NCI-H23, SW1573) were tested with an exemplary KRAS G12C inhibitor (compound I-272, 1 μM) alone or in combination with one of ruxolitinib (JAK 1/2 inhibitor, 1 and 5 μM) or momelotinib (JAK1/2, TBK1, IKKe inhibitor, 1 and 5 μM). […] Further, there is synergistic p-S6 inhibition in each of the combinations. Synergistic apoptosis strongly occurred when TBK1 and non-canonical NFκB signaling is inhibited.
# [4] = compounds 48-246, measured at 2 h
# [5] = I-74 15 μM, PD0325901 100 nM, GDC0941 1 μM
# [6] = 24 hours, G12C inhibitors 10 μM, GDC0941 2 μM (FIG. 2)
# T1 sequence (P01116 1-169 isoform P01116-2 G12C): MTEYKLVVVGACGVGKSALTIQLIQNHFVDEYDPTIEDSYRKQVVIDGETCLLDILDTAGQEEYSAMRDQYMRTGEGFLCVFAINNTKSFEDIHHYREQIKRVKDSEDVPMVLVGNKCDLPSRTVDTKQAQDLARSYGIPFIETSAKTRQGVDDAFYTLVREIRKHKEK
SMILES,Binding % ([1]; determined at 2 hrs),further results
"C=CC(=O)N1CCN(c2ncnc3cc(-c4ccccc4O)c(Cl)cc23)CC1 [Compound I-74, 1-(4-(6-chloro-7-(2-hydroxyphenyl)quinazolin-4-yl)piperazin-1-yl)prop-2-en-1-one]",–,"Binding % [1, 4]: +++ (+++indicates binding activity greater than 50% and up to 75%); inhibition of downstream KRAS signaling nodes (Western blot) ([2]; 15 μM, 24 hours): clear and nearly complete inhibition of p-ERK, p-RSK, and p-S6; apoptosis based on cleaved PARP levels [2, 5]: minimal cleaved PARP"
"C=CC(=O)N1CCN(c2ncnc3cc(-c4c(O)ccc5ccccc45)c(Cl)cc23)CC1 [Compound I-153, 1-(4-(6-chloro-7-(2-hydroxynaphthalen-1-yl)quinazolin-4-yl)piperazin-1-yl)prop-2-en-1-one]",–,"Binding % [1, 4]: ++++ (++++indicates binding activity greater than 75%); apoptosis based on cleaved PARP levels [2, 6]: minimal cleaved PARP; inhibition of downstream KRAS signaling nodes (Western blot) ([2]; 24 hours, 10 μM (FIG. 2)): clear and nearly complete inhibition of p-ERK, p-RSK, and p-S6, with partial inhibition of p-AKT"
"C=CC(=O)N1CCN(c2ncnc3c(F)c(-c4ccccc4F)c(Cl)cc23)CC1 [Compound I-158, 1-(4-(6-chloro-8-fluoro-7-(2-fluorophenyl)quinazolin-4-yl)piperazin-1-yl)prop-2-en-1-one]",–,"Binding % [1, 4]: ++++ (++++indicates binding activity greater than 75%); apoptosis based on cleaved PARP levels [2, 6]: minimal cleaved PARP; inhibition of downstream KRAS signaling nodes (Western blot) ([2]; 24 hours, 10 μM (FIG. 2)): clear and nearly complete inhibition of p-ERK, p-RSK, and p-S6, with partial inhibition of p-AKT"
"C=CC(=O)N1CC(N2CCN(C(=O)C(C)Nc3cc(C4CCC4)c(Cl)cc3O)CC2)C1 (stereo not drawn) [II-59, 1-(3-(4-(2-(4-chloro-5-cyclobutyl-2-hydroxyphenylamino)propanoyl)piperazin-1-yl)azetidin-1-yl)prop-2-en-1-one]",++ (++indicates binding activity greater than 20%),–
"C=CC(=O)N1CC(N2CCN(C(=O)CNc3cc(C4CC4)c(Cl)cc3O)CC2C)C1 (stereo not drawn) [II-60, 1-(3-(4-(2-((4-Chloro-5-cyclopropyl-2-hydroxyphenyl)amino)acetyl)-2-methylpiperazin-1-yl)azetidin-1-yl)prop-2-en-1-one]",++ (++indicates binding activity greater than 20%),–
"C=CC(=O)N1CC(N2CCN(C(=O)Cc3c[nH]c4cc(Cl)c(Cl)cc34)CC2)C1 [II-61, 1-(3-(4-(2-(5,6-Dichloro-1H-indol-3-yl)acetyl)piperazin-1-yl)azetidin-1-yl)prop-2-en-1-one]",+ (+indicates binding activity from 5% to 20%),–
"C=CC(=O)N1CC(N2CCN(C(=O)/C=C/c3cc(C4CC4)c(Cl)cc3O)CC2)C1 [II-62, (E)-1-(4-(1-Acryloylazetidin-3-yl)piperazin-1-yl)-3-(4-chloro-5-cyclopropyl-2-hydroxyphenyl)prop-2-en-1-one]",+ (+indicates binding activity from 5% to 20%),–
"C=CC(=O)N1CC(N2CCN(C(=O)CNc3cc(C4CC4)c(Cl)cc3O)C[C@H]2CO)C1 [II-63, (S)-1-(3-(4-(2-(4-chloro-5-cyclopropyl-2-hydroxyphenyl-amino)acetyl)-2-(hydroxymethyl)-piperazin-1-yl)azetidin-1-yl)prop-2-en-1-one]",++ (++indicates binding activity greater than 20%),–
"C=CC(=O)N1CC(N2CCN(C(=O)CNc3cc(C4(C)CC4)c(Cl)cc3O)CC2)C1 [II-64, 1-(3-(4-(2-((4-Chloro-2-hydroxy-5-(1-methylcyclopropyl)phenyl)amino)acetyl)piperazin-1-yl)azetidin-1-yl)prop-2-en-1-one]",++ (++indicates binding activity greater than 20%),–
"C=CC(=O)N1CC(N2CCN(C(=O)CSc3cc(C4CC4)c(Cl)cc3OC)CC2)C1 [II-65, 1-(3-(4-(2-(4-Chloro-5-cyclopropyl-2-methoxyphenylthio)acetyl)piperazin-1-yl)azetidin-1-yl)prop-2-en-1-one]",+ (+indicates binding activity from 5% to 20%),–
"C=CC(=O)N1CC(N2CCN(C(=O)[C@H](C)Nc3cc(C4CC4)c(Cl)cc3O)CC2)C1 [II-67, (S)-1-(3-(4-(2-((4-Chloro-5-cyclopropyl-2-hydroxyphenyl)amino)propanoyl)piperazin-1-yl)azetidin-1-yl)prop-2-en-1-one]",++ (++indicates binding activity greater than 20%),–
"C=CC(=O)N1CC(N2CCN(C(=O)[C@@H](C)Nc3cc(C4CC4)c(Cl)cc3O)CC2)C1 [II-68, (R)-1-(3-(4-(2-(4-chloro-5-cyclopropyl-2-hydroxyphenylamino)-propanoyl)piperazin-1-yl)azetidin-1-yl)prop-2-en-1-one]",++ (++indicates binding activity greater than 20%),–
"C=CC(=O)N1CC(N2CCN(C(=O)[C@H](C)Nc3cc(CC)c(Cl)cc3O)CC2)C1 [II-69, (S)-1-(3-(4-(2-((4-Chloro-5-ethyl-2-hydroxyphenyl)amino)propanoyl)piperazin-1-yl)azetidin-1-yl)prop-2-en-1-one]",++ (++indicates binding activity greater than 20%),–
"C=CC(=O)N1CC(N2CCN(C(=O)[C@@H](C)Nc3cc(CC)c(Cl)cc3O)CC2)C1 [II-70, (R)-1-(3-(4-(2-(4-chloro-5-ethyl-2-hydroxyphenylamino)-propanoyl)piperazin-1-yl)azetidin-1-yl)prop-2-en-1-one]",++ (++indicates binding activity greater than 20%),–
"C=CC(=O)N1CC(N2CCN(C(=O)CNc3cc(C4CC4)c(Cl)cc3C#N)CC2)C1 [II-71, 2-((2-(4-(1-Acryloylazetidin-3-yl)piperazin-1-yl)-2-oxoethyl)amino)-5-chloro-4-cyclopropylbenzonitrile]",+ (+indicates binding activity from 5% to 20%),–
"C=CC(=O)N1CC(N2CCN(c3cc(-c4cc(CC)c(Cl)cc4O)n[nH]3)CC2)C1 [II-72, 1-(3-(4-(3-(4-chloro-5-ethyl-2-hydroxyphenyl)-1H-pyrazol-5-yl)piperazin-1-yl)azetidin-1-yl)prop-2-en-1-one]",+ (+indicates binding activity from 5% to 20%),–
"C=CC(=O)N1CC(N2CCN(C(=O)C3CCCN3c3cc(C4CC4)c(Cl)cc3OC)CC2)C1 (stereo not drawn) [II-73, 1-(3-(4-(1-(4-chloro-5-cyclopropyl-2-methoxyphenyl)-pyrrolidine-2-carbonyl)piperazin-1-yl)azetidin-1-yl)prop-2-en-1-one]",+ (+indicates binding activity from 5% to 20%),–
"C=CC(=O)N1CC(N2CCN(C(=O)CNc3cc(CC)c(Cl)cn3)CC2)C1 [II-74, 1-(3-(4-(2-(5-chloro-4-ethylpyridin-2-ylamino)acetyl)-piperazin-1-yl)azetidin-1-yl)prop-2-en-1-one]",+ (+indicates binding activity from 5% to 20%),G1 arrest and induction of apoptosis [2]: G1 arrest with low to modest induction of apoptosis
"C=CC(=O)N1CC(N2CCN(C(=O)Cn3ccc4c(Cl)c(Cl)cc(OC)c43)CC2)C1 [II-75, 1-(3-(4-(2-(4,5-dichloro-7-methoxy-1H-indol-1-yl)acetyl)piperazin-1-yl)azetidin-1-yl)prop-2-en-1-one]",+ (+indicates binding activity from 5% to 20%),–
"C=CC(=O)N1CCN(C(=O)c2cc(-c3cc(Cl)ccc3Cl)c(Cl)cc2OC)C(CO)C1 (stereo not drawn) [III-7, 1-(3-(Hydroxymethyl)-4-(2′,5′,6-trichloro-4-methoxy-[1,1′-biphenyl]-3-carbonyl)piperazin-1-yl)prop-2-en-1-one]",–,Binding % ([1]; determined at 24 hrs): +++ (+++indicates binding activity greater than 20% and up to 30%)
"C=CC(=O)N1CCN(C(=O)c2cc(-c3ccc(Cl)cc3Cl)c[nH]2)CC1 [III-32, 1-(4-(4-(2,4-Dichlorophenyl)-1H-pyrrole-2-carbonyl)piperazin-1-yl)prop-2-en-1-one]",–,Binding % ([1]; determined at 24 hrs): ++++ (++++indicates binding activity greater than 30%)
"C=CC(=O)N1CCN(C(=O)c2cc(-c3ccc(Cl)cc3)c(Cl)cc2O)CC1C#N (stereo not drawn) [III-37, 1-acryloyl-4-(4′,6-dichloro-4-hydroxybiphenylcarbonyl)piperazine-2-carbonitrile]",++ (++indicates binding activity greater than 20%),–
"C=CC(=O)N1CCN(C(=O)c2cc(Cl)c(-c3ccccc3)cc2O)CC1 [III-42, 1-(4-(2-Chloro-5-hydroxy-[1,1′-biphenyl]-4-carbonyl)piperazin-1-yl)prop-2-en-1-one]",+ (+indicates binding activity from 5% to 20%),–
O=C(NOC[C@H](O)CO)c1ccc(F)c(F)c1Nc1ccc(I)cc1F [PD0325901],–,"G1 arrest and induction of apoptosis [2]: G1 arrest with low to modest induction of apoptosis; apoptosis based on cleaved PARP levels [2, 5]: does not induce robust apoptosis"
"N#CCNC(=O)c1ccc(-c2ccnc(Nc3ccc(N4CCOCC4)cc3)n2)cc1 [momelotinib, reference compound]",–,apoptosis based on cleaved PARP levels [3]: does not induce robust apoptosis
